Laboratory results: PMC10909654 (The Journal of Cell Biology, 2024)

What was measured:
[1] = biological target: T1, FABP7 (Homo sapiens, UniProt O15540); test: radioligand competition against 3H-cholesterol; format: binding; conditions: 1.5 µM cholesterol, pH 7.4, 25 °C, competitive
T1 sequence (O15540 2-132): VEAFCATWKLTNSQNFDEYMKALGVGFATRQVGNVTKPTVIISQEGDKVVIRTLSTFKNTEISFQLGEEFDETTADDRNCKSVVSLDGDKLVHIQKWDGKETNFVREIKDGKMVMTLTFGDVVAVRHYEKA

[2] = biological target: T1, FABP7; conditions: 0.5 µM protein, 5 mol% DHE in donor liposomes, pH 7.2, 25 °C
[3] = biological target: T2, FABP3 (Homo sapiens, UniProt P05413); conditions: 0.5 µM protein, 5 mol% DHE in donor liposomes, pH 7.2, 25 °C
[4] = biological target: T3, FABP8 (Homo sapiens, UniProt P02689); conditions: 0.5 µM protein, 5 mol% DHE in donor liposomes, pH 7.2, 25 °C
[5] = biological target: T2, FABP3; test: radioligand binding, Ni bead pull-down, scintillation counting; conditions: 1.5 µM ligand, 150 nM protein; labelled compound; pH 7.4, 25 °C
[6] = biological target: T1, FABP7; test: as above
[7] = biological target: T3, FABP8; test: as above; conditions: 1.5 µM ligand, 150 nM protein; labelled compound; pH 7.4, 25 °C
[8] = biological target: T2, FABP3; test: as above; conditions: 1.5 µM ligand, 150 nM protein; labelled compound; pH 7.4, 25 °C; remark: listed apart in the source
[9] = biological target: T3, FABP8; test: as above; conditions: 1.5 µM ligand, 150 nM protein; labelled compound; pH 7.4, 25 °C; remark: listed apart in the source

T3 sequence (P02689 2-132): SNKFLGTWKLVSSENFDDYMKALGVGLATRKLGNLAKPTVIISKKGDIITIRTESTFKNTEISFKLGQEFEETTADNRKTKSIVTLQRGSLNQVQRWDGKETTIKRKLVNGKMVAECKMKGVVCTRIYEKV
T2 sequence (P05413 2-133): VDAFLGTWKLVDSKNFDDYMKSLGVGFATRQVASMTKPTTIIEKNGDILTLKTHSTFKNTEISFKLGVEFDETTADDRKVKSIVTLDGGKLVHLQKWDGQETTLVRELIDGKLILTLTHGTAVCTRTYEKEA

With `CCCCC/C=C\C/C=C\C/C=C\C/C=C\CCCC(=O)O` [arachidonic acid] the “relative 3H-cholesterol bound” value ([1]; competitor 7.5 µM) was “all the tested fatty acids could compete with ^3H-cholesterol for FABP7 binding”.

`CC(C)[C@@H](C)/C=C/[C@@H](C)[C@H]1CC[C@H]2C3=CC=C4C[C@@H](O)CC[C@]4(C)C3=CC[C@]12C` [dehydroergosterol] was tested, and the initial transport rate [2] was “The purified FABP7 protein promoted DHE transport”, the initial transport rate [3] was “FABP3 and FABP8 could transfer DHE as efficiently as FABP7” and the initial transport rate [4] was “FABP3 and FABP8 could transfer DHE as efficiently as FABP7”.

In the case of `CC(C)CCC[C@@H](C)[C@H]1CC[C@H]2[C@@H]3CC=C4C[C@@H](O)CC[C@]4(C)[C@H]3CC[C@]12C` [cholesterol], the “relative 3H-cholesterol bound” value [5] is reported as “FABP3 showed modestly yet significantly reduced binding affinity for cholesterol”, the Kd [6] is reported as 3.04 ± 0.78 µM and the “relative 3H-cholesterol bound” value [7] is reported as “FABP8 bound cholesterol as potently as FABP7”.

For `CC/C=C\C/C=C\C/C=C\C/C=C\C/C=C\C/C=C\CCC(=O)O` [docosahexaenoic acid], the “relative 3H-cholesterol bound” value ([1]; competitor 7.5 µM) was “all the tested fatty acids could compete with ^3H-cholesterol for FABP7 binding”.

For `CCCCCCCCCCCCCCCC(=O)O` [palmitic acid], the “relative 3H-cholesterol bound” value ([1]; competitor 7.5 µM) was “all the tested fatty acids could compete with ^3H-cholesterol for FABP7 binding”.

With `CCCCCCCC/C=C\CCCCCCCC(=O)O` [oleic acid] the “relative 3H-cholesterol bound” value ([1]; competitor 3.75-15 µM) was “oleic acid was the most potent ligand and showed a dose-dependent competing effect”, the “relative 3H-oleic acid bound” value [8] was “Both FABP3 and FABP8 could bind oleic acid avidly” and the “relative 3H-oleic acid bound” value [9] was “Both FABP3 and FABP8 could bind oleic acid avidly”.
